# Assay results published in ChEMBL document CHEMBL3856198, “Synthesis of novel 17-(4'-formyl)pyrazolylandrosta-5,16-dienes and their derivatives as potent 17α-hydroxylase/C17,20-lyase inhibitors or antiproliferative agents depending on the substitution pattern of the heteroring” (Eur J Med Chem, 2016).
# How the values were obtained:
# [1] = biological target: T1, Steroid 17-alpha-hydroxylase/17,20 lyase (Rattus norvegicus, UniProt P11715); assay: Inhibition of Wistar rat testicular C17,20-lyase assessed as androst-4-ene-3,17-dione formation using [3H]17-hydroxyprogesterone as substrate in presence of NADPH
# T1 sequence (P11715 whole entry): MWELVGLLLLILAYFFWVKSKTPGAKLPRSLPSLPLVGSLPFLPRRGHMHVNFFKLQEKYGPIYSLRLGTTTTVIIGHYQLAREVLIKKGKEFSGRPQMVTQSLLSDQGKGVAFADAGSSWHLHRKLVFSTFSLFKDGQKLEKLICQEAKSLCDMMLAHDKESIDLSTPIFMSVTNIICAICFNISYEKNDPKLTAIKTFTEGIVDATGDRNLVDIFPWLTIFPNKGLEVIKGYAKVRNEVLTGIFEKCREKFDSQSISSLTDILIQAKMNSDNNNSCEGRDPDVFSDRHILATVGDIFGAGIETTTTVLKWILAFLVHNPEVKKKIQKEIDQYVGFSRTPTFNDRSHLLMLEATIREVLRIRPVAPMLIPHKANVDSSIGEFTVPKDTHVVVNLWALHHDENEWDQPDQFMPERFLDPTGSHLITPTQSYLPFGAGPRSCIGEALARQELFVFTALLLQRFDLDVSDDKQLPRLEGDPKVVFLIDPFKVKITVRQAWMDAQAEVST
# [2] = Growth inhibition of human MCF7 cells at 30 uM after 72 hrs by MTT assay; assay type: functional; conditions: MCF7, 72 h, read-out: GI
# [3] = Growth inhibition of human T47D cells after 72 hrs by MTT assay; assay type: functional, cell-based
# [4] = Growth inhibition of human MCF7 cells after 72 hrs by MTT assay; assay type: functional, cell-based; conditions: MCF7, 72 h
# [5] = Growth inhibition of human MCF7 cells at 10 uM after 72 hrs by MTT assay; assay type: functional; conditions: MCF7, 72 h, read-out: GI
# [6] = Growth inhibition of human MDA-MB-231 cells at 10 uM after 72 hrs by MTT assay; assay type: functional; conditions: MDA-MB-231, 72 h, read-out: GI
# [7] = Growth inhibition of human MDA-MB-361 cells at 10 uM after 72 hrs by MTT assay; assay type: functional; conditions: MDA-MB-361, 72 h, read-out: GI
# [8] = Growth inhibition of human T47D cells at 30 uM after 72 hrs by MTT assay; assay type: functional; conditions: read-out: GI
# [9] = Growth inhibition of human T47D cells at 10 uM after 72 hrs by MTT assay; assay type: functional; conditions: read-out: GI
# [10] = Growth inhibition of human MDA-MB-361 cells after 72 hrs by MTT assay; assay type: functional, cell-based; conditions: MDA-MB-361, 72 h
# [11] = Growth inhibition of human MDA-MB-361 cells at 30 uM after 72 hrs by MTT assay; assay type: functional; conditions: MDA-MB-361, 72 h, read-out: GI
# [12] = Growth inhibition of human MDA-MB-231 cells at 30 uM after 72 hrs by MTT assay; assay type: functional; conditions: MDA-MB-231, 72 h, read-out: GI
# [13] = Growth inhibition of human MDA-MB-231 cells after 72 hrs by MTT assay; assay type: functional, cell-based; conditions: MDA-MB-231, 72 h
# [14] = biological target: T1, Steroid 17-alpha-hydroxylase/17,20 lyase; assay: Potency index, ratio of ketoconazole IC50 to compound IC50 for Wistar rat testicular C17,20-lyase
Compound,IC50 [1] [µM],inhibition of growth at 30 µM [2] [%],IC50 [3] [µM],IC50 [4] [µM],inhibition of growth at 10 µM [5] [%],inhibition of growth at 10 µM [6] [%],inhibition of growth at 10 µM [7] [%],inhibition of growth at 30 µM [8] [%],inhibition of growth at 10 µM [9] [%],IC50 [10] [µM],inhibition of growth at 30 µM [11] [%],inhibition of growth at 30 µM [12] [%],IC50 [13] [µM],Ratio IC50 [14]
C[C@]12CC[C@H](O)CC1=CC[C@@H]1[C@@H]2CC[C@]2(C)C(c3ccn[nH]3)=CC[C@@H]12,0.0077,,,,,,,,,,,,,
COc1ccc(-n2cc(C=O)c(C3=CC[C@H]4[C@@H]5CC=C6C[C@@H](O)CC[C@]6(C)[C@H]5CC[C@]34C)n2)cc1,,98.1,3.7,3.8,92.3,96.1,89.6,96.7,92.5,3.3,96.2,96.2,3.6,
C[C@]12CC[C@H](O)CC1=CC[C@@H]1[C@@H]2CC[C@]2(C)C(c3nn(-c4ccccc4)cc3CO)=CC[C@@H]12,,89.8,,3.4,79.2,85.2,90.6,90.6,74.4,2.1,96.1,93.2,5.2,
C[C@]12CC[C@H](O)CC1=CC[C@@H]1[C@@H]2CC[C@]2(C)C(c3n[nH]cc3C=O)=CC[C@@H]12,0.066,80.8,,,31.4,54.3,42.6,77,43.2,,79.7,93.7,,
Cn1cc(C#N)c(C2=CC[C@H]3[C@@H]4CC=C5C[C@@H](O)CC[C@]5(C)[C@H]4CC[C@]23C)n1,,40.9,,,< 20,< 20,< 20,29.6,< 20,,32.5,32.6,,
CC(=O)O[C@H]1CC[C@@]2(C)C(=CC[C@@H]3[C@@H]2CC[C@]2(C)C(c4nn(-c5ccccc5)cc4C=O)=CC[C@@H]32)C1,,86.3,,,57.1,37.9,52.8,79.9,31.4,,76.9,71.5,,
C[C@]12CC[C@H](O)CC1=CC[C@@H]1[C@@H]2CC[C@]2(C)C(c3nn(-c4ccccc4)cc3C=O)=CC[C@@H]12,,98.1,3.9,3.7,93.4,93.5,88.6,96.9,93.2,3.8,95.8,96.3,5.4,
C[C@]12CC[C@H](O)CC1=CC[C@@H]1[C@@H]2CC[C@]2(C)C(c3nn(-c4ccc(Cl)cc4)cc3CO)=CC[C@@H]12,,90.9,5.7,,54.3,93.2,80,94.8,81,2.5,93.1,97.8,3.6,
C[C@]12CC[C@H](O)CC1=CC[C@@H]1[C@@H]2CC[C@]2(C)C(c3nn(-c4ccc(C#N)cc4)cc3CO)=CC[C@@H]12,,88.4,1.2,1.4,71.6,95.9,86.5,94.5,89.6,1.6,91.9,96.4,1.8,
C[C@]12CC[C@H](O)CC1=CC[C@@H]1[C@@H]2CC[C@]2(C)C(c3nn(-c4ccc(Br)cc4)cc3CO)=CC[C@@H]12,,86.9,,,65.9,76.8,83.5,85.9,68.2,2,91.5,88.2,4,
CC(=O)O[C@H]1CC[C@@]2(C)C(=CC[C@@H]3[C@@H]2CC[C@]2(C)C(c4nn(C)cc4C#N)=CC[C@@H]32)C1,,50.3,,,41.8,30.5,30.8,60.4,21.7,,53.1,34.9,,
C[C@]12CC[C@H](O)CC1=CC[C@@H]1[C@@H]2CC[C@]2(C)C(c3n[nH]cc3C#N)=CC[C@@H]12,0.092,63.4,,,36.6,23.3,46.6,75.7,46.8,,80.4,88.4,,
C[C@]12CC[C@H](O)CC1=CC[C@@H]1[C@@H]2CC[C@]2(C)C(c3nn(-c4ccc([N+](=O)[O-])cc4)cc3CO)=CC[C@@H]12,,87.6,,,65.4,78.1,82.2,84.7,73.2,2.7,91.9,92.7,4.3,
C[C@]12CC[C@H](O)CC1=CC[C@@H]1[C@@H]2CC[C@]2(C)C(c3n[nH]cc3CO)=CC[C@@H]12,0.026,< 20,,,< 20,< 20,< 20,25.7,< 20,,35.6,< 20,,12
CC(=O)O[C@H]1CC[C@@]2(C)C(=CC[C@@H]3[C@@H]2CC[C@]2(C)C(c4nn(C(C)=O)cc4C#N)=CC[C@@H]32)C1,,70,,,< 20,< 20,< 20,63.9,< 20,,64.6,61.3,,
C[C@]12CC[C@H](O)CC1=CC[C@@H]1[C@@H]2CC[C@]2(C)C(c3cccnc3)=CC[C@@H]12 [ABIRATERONE],,74.7,16.9,19.3,12.4,14.3,32.2,70.8,32.5,20.4,61.2,85,19.2,
